Reference: the NIST ThermoML archive (doi:10.1021/acs.jced.5b00654)
Several values for one entry are separate records, joined by “and”; a condition that tells them apart may be missing. Equal entries are not always repeated.

Conditions: Fluid (supercritical or subcritical phases); for viscosity: Vibrating wire viscometry; for mass density: Buoyancy - hydrostatic balance with magnetic suspension - one sinker

CCCC [butane]
Conditions	mass density	viscosity
428.09 K, 5150.2 kPa	–	0.04428 mPa·s
428.1 K, 796.14 kPa	14.038 kg/m3	0.01066 mPa·s
428.1 K, 796.19 kPa	14.041 kg/m3	0.01066 mPa·s
428.1 K, 904.9 kPa	16.138 kg/m3	0.01069 mPa·s
428.1 K, 1964.1 kPa	40.163 kg/m3	0.01117 mPa·s
428.1 K, 4625.9 kPa	341.66 kg/m3	0.04038 mPa·s
428.11 K, 131.61 kPa	2.1741 kg/m3	0.01052 mPa·s
428.11 K, 131.64 kPa	2.1741 kg/m3	0.01052 mPa·s
428.11 K, 904.86 kPa	16.141 kg/m3	0.01069 mPa·s
428.11 K, 1964.3 kPa	40.167 kg/m3	0.01118 mPa·s
428.11 K, 4626.6 kPa	341.66 kg/m3	0.04035 mPa·s
428.11 K, 4626.8 kPa	341.65 kg/m3	0.04033 mPa·s
428.12 K, 685.03 kPa	11.939 kg/m3	0.01063 mPa·s
428.12 K, 2306.2 kPa	49.889 kg/m3 and 49.887 kg/m3	0.01144 mPa·s
428.12 K, 3964.9 kPa	218.37 kg/m3	0.02262 mPa·s
428.12 K, 3984.8 kPa	246.5 kg/m3	0.02576 mPa·s
428.12 K, 3984.9 kPa	246.49 kg/m3	0.02577 mPa·s
428.13 K, 480.91 kPa	8.2126 kg/m3	0.01059 mPa·s
428.13 K, 578.67 kPa	9.9774 kg/m3	0.01061 mPa·s
428.13 K, 684.54 kPa	11.929 kg/m3	0.01063 mPa·s
428.13 K, 2624.6 kPa	60.353 kg/m3	0.01177 mPa·s
428.13 K, 2624.7 kPa	60.36 kg/m3	0.01177 mPa·s
428.13 K, 2862.9 kPa	69.476 kg/m3	0.01209 mPa·s
428.13 K, 3655.2 kPa	119.22 kg/m3	0.01443 mPa·s
428.13 K, 3964.8 kPa	218.33 kg/m3	0.02263 mPa·s
428.13 K, 3990.1 kPa	251.58 kg/m3 and 251.63 kg/m3	0.02637 mPa·s and 0.02638 mPa·s
428.13 K, 5948.9 kPa	378 kg/m3	0.04846 mPa·s
428.13 K, 5949.6 kPa	378.01 kg/m3 and 378.02 kg/m3	0.04837 mPa·s and 0.04844 mPa·s
428.14 K, 480.81 kPa	8.2112 kg/m3	0.01059 mPa·s
428.14 K, 578.76 kPa	9.9803 kg/m3	0.01061 mPa·s
428.14 K, 1041.2 kPa	18.856 kg/m3	0.01073 mPa·s
428.14 K, 2862.8 kPa	69.471 kg/m3	0.01209 mPa·s
428.14 K, 3427.1 kPa	99.322 kg/m3	0.01338 mPa·s
428.14 K, 3655.7 kPa	119.23 kg/m3	0.01444 mPa·s
428.14 K, 4145.9 kPa	304.6 kg/m3	0.03374 mPa·s
428.14 K, 4146.2 kPa	304.61 kg/m3	0.03373 mPa·s
428.14 K, 30018 kPa	498.2 kg/m3	0.09505 mPa·s
428.14 K, 30022 kPa	498.2 kg/m3	0.09486 mPa·s
428.14 K, 30023 kPa	498.21 kg/m3	0.09498 mPa·s
428.15 K, 1040.7 kPa	18.847 kg/m3	0.01073 mPa·s
428.15 K, 3263.7 kPa	88.854 kg/m3	0.01288 mPa·s
428.15 K, 3427.2 kPa	99.316 kg/m3	0.01337 mPa·s
428.15 K, 4067.3 kPa	289 kg/m3	0.03129 mPa·s
428.15 K, 4067.5 kPa	288.98 kg/m3	0.03132 mPa·s
428.15 K, 12773 kPa	440.28 kg/m3	0.06754 mPa·s
428.15 K, 17075 kPa	460.12 kg/m3	0.07551 mPa·s
428.15 K, 17077 kPa	460.12 kg/m3	0.07561 mPa·s
428.16 K, 62.1 kPa	1.0176 kg/m3	0.01051 mPa·s
428.16 K, 3263.8 kPa	88.856 kg/m3	0.01289 mPa·s
428.16 K, 7467.1 kPa	399.68 kg/m3	0.05418 mPa·s
428.16 K, 7467.5 kPa	399.69 kg/m3	0.05413 mPa·s
428.16 K, 9661.1 kPa	420.21 kg/m3	0.06045 mPa·s
428.16 K, 9662.3 kPa	420.22 kg/m3	0.06047 mPa·s
428.16 K, 12732 kPa	440.05 kg/m3	0.06741 mPa·s
428.16 K, 12735 kPa	440.06 kg/m3	0.06744 mPa·s
428.17 K, 62.1 kPa	1.0183 kg/m3	0.01051 mPa·s
428.17 K, 3976.1 kPa	230.45 kg/m3	0.02394 mPa·s
428.17 K, 7466.2 kPa	399.67 kg/m3	0.05411 mPa·s
428.18 K, 62.1 kPa	1.0176 kg/m3	0.01051 mPa·s
428.18 K, 1098.5 kPa	20.025 kg/m3	0.01075 mPa·s
428.18 K, 1099.1 kPa	20.038 kg/m3	0.01075 mPa·s
428.18 K, 3790.9 kPa	137.62 kg/m3	0.01558 mPa·s
428.18 K, 3953.3 kPa	199.18 kg/m3	0.02063 mPa·s
428.18 K, 3976.3 kPa	230.48 kg/m3	0.02395 mPa·s
428.18 K, 4312 kPa	322.22 kg/m3	0.03673 mPa·s
428.18 K, 4312.4 kPa	322.24 kg/m3 and 322.25 kg/m3	0.03673 mPa·s and 0.03668 mPa·s
428.19 K, 3883.8 kPa	159.22 kg/m3	0.01712 mPa·s
428.19 K, 3884.1 kPa	159.21 kg/m3	0.01712 mPa·s
428.19 K, 3938.7 kPa	185.24 kg/m3	0.01931 mPa·s
428.19 K, 3939.2 kPa	185.3 kg/m3	0.01933 mPa·s
428.19 K, 3953.5 kPa	199.12 kg/m3	0.02064 mPa·s
